Laboratory results: patent publication US20220143061A1, “3'3'-CYCLIC DINUCLEOTIDES AND PRODRUGS THEREOF” (INSTITUTE OF ORGANIC CHEMISTRY AND BIOCHEMISTRY ASCR, V.V.I., priority 2019, published 2022)
pEC50: −log10 of the molar value. Where two headings read alike, the source gives them in different places. One block for each compound: values may come before it.

Assays:
[1] = tested on: peripheral blood mononuclear cell (PBMC); assay: Peripheral blood mononuclear cell assay (cytokine levels); type: cell-based; conditions: 1 h with compound, wash, 15 hour incubation, average of one to four donors
Procedure: Selected compounds were tested in an in vitro peripheral blood mononuclear cell (PBMC) assay. […] Serially diluted tested compounds were added to wells in 50 μl of cultivation medium and cell were incubated with compounds for 1 h at 37° C. with 5% CO2. Plates with cells were then spun 500 g for 5 minutes and medium was removed. Cells were washed twice with the cell culture medium by the use of centrifugation and gently resuspended in 100 μl medium without compounds. After 15 hour incubation at 37° C. with 5% CO2, the cell culture medium was collected and the levels of interferon-alpha (INF-α), interferon-gamma (INF-γ) and tumor necrosis factor-alpha (TNF-α) were determined with ProcartaPlex Assays (ThermoFisher, Waltham, USA) and MAGPIX System (Merck KGaA, Darmstadt, Germany). […] Values reported are an average of runs from one to four donors.

[2] = target: T1, human wild type STING (WT STING) (Homo sapiens, UniProt Q86WV6, H232R); assay: 293T WT STING standard reporter assay; type: cell-based; conditions: no digitonin, 7 hours, ISRE firefly luciferase
T1 construct: host or cells: 293T cells (ATCC CRL-3216), stably double transfected with pUNO1-hSTING-WT and pGL64.27-4×ISRE
T1 sequence (Q86WV6 whole entry H232R): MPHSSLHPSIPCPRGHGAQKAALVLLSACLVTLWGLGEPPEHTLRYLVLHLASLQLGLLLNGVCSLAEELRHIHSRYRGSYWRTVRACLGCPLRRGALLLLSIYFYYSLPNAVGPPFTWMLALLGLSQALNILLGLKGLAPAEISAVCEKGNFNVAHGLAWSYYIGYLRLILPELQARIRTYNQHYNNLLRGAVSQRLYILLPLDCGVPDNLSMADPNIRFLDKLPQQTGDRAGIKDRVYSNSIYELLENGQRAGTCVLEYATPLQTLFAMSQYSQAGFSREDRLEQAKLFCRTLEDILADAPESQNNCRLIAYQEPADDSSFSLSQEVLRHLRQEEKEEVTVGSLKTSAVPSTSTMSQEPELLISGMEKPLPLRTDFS
Source text: Two complementary oligonucleotides of the sequence […] […] […] […] […] The oligonucleotides were mixed in equal molar amounts, hybridized, and cleaved by restriction endonucleases HindIII (cat. #. R0104S, NEB, Ipswich, USA) and BglII (cat. #R0144S, NEB, Ipswich, USA). Ultimately, they were ligated into plasmid pGL4.27 (cat. #E6651, Promega, Madison, USA) linearized with the same enzymes. As result the sequence with four ISRE sites was placed upstream of the minimum promoter of firefly luciferase reporter gene.
After 5 minutes incubation at room temperature (RT), 250 μL of the mixture was added dropwise to the cells in one well. Cells were incubated 36 hours at 37° C. with 5% CO2, and then detached with 0.05% Trypsin and 0.22 g/L EDTA (both cat. #L0941, Biowest, Riverside, USA).
Transfected cells were seeded onto poly-D-lysine coated six well plates at density 50,000 cells per 1 cm^2 in DMEM medium with high glucose containing 10% heat inactivated FBS, 30 μg/mL blasticidin (cat. #ant-b1-05, InvivoGen, San Diego, USA), 0.06 mg/ml Penicillin G and 0.1 mg/ml Streptomycin Sulfate (both cat. #. L0018, Biowest, Riverside, USA). The medium was replenished every 3-4 days until visible colonies of cells resistant to blasticidin were formed.
Blasticidin resistant cells stably expressing WT STING were further transfected with pGL64.27-4×ISRE plasmid following the same procedure as described above. […] Homogeneous culture of stably double transfected cells was prepared by limiting dilution of cells in 96 well plates and wells with cells were selected that originated from a single cell.
The medium was removed the next day and three-fold serial dilutions of compounds in 100 μl medium were added to the cells. The plates were incubated for 7 hours at 37° C. with 5% CO2. Next 50 μl of the medium was removed from wells, and 30 μl of ONE-Glo™ Luciferase Assay System reagent (cat. #E6120, Promega, Madison, USA) was added to each well. Luminescence was read on Synergy H1 (Biotek, Winooski, USA).

[3] = 293T wtSTING-FL cells, read-out: 293T WT STING EC50
[4] = 293T WT STING EC50, 293T wtSTING-FL cells

pEC50 [2, 3]: 7.52
Compound: CC(C)(C)C(=O)OCOP1(=O)CO[C@H]2[C@@H](F)[C@H](n3cnc4c(N)ncnc43)O[C@@H]2COP(=O)(OCOC(=O)C(C)(C)C)O[C@H]2[C@@H](F)[C@H](n3cnc4c(N)ncnc43)O[C@@H]2CO1 (mixture of isomers) [Compound 41b, {[(1R,6R,8R,9R,10R,16R,18R,19R)-8,18-bis(6-amino-9H-purin-9-yl)-13-{[(2,2-dimethylpropanoyl)oxy]methoxy}-9,19-difluoro-3,13-dioxo-2,4,7,11,14,17-hexaoxa-3λ^5,13λ^5-diphosphatricyclo[14.3.0.0^6,^10]nonadecan-3-yl]oxy}methyl 2,2-dimethylpropanoate]
pEC50 ([1]; read-out: PBMC EC50 IFN-α): 6.60 | pEC50 ([1]; read-out: PBMC EC50 IFN-γ): 7.00 | pEC50 ([1]; read-out: PBMC EC50 TNF-α): 7.40

pEC50 [2, 3]: 6.60
Compound: CC(C)OC(=O)OCOP1(=O)CO[C@H]2[C@@H](F)[C@H](n3cnc4c(N)ncnc43)O[C@@H]2COP(=O)(OCOC(=O)OC(C)C)O[C@H]2[C@@H](F)[C@H](n3cnc4c(N)ncnc43)O[C@@H]2CO1 (mixture of isomers) [Compound 42b, {[(1R,6R,8R,9R,10R,16R,18R,19R)-8,18-bis(6-amino-9H-purin-9-yl)-9,19-difluoro-3,13-dioxo-13-({[(propan-2-yloxy)carbonyl]oxy}methoxy)-2,4,7,11,14,17-hexaoxa-3λ^5,13λ^5-diphosphatricyclo[14.3.0.0^6,^10]nonadecan-3-yl]oxy}methyl propan-2-yl carbonate]
pEC50 ([1]; read-out: PBMC EC50 IFN-α): 5.64 | pEC50 ([1]; read-out: PBMC EC50 IFN-γ): 5.89 | pEC50 ([1]; read-out: PBMC EC50 TNF-α): 5.96

pEC50 [2, 3]: 8.00
Compound: CCC(C)(C)C(=O)OCOP1(=O)CO[C@H]2[C@@H](F)[C@H](n3cnc4c(N)ncnc43)O[C@@H]2COP(=O)(OCOC(=O)C(C)(C)CC)O[C@H]2[C@@H](F)[C@H](n3cnc4c(N)ncnc43)O[C@@H]2CO1 (mixture of isomers) [Compound 44b, {[(1R,6R,8R,9R,10R,16R,18R,19R)-8,18-bis(6-amino-9H-purin-9-yl)-13-{[(2,2-dimethylbutanoyl)oxy]methoxy}-9,19-difluoro-3,13-dioxo-2,4,7,11,14,17-hexaoxa-3λ^5,13λ^5-diphosphatricyclo[14.3.0.0^6,^10]nonadecan-3-yl]oxy}methyl 2,2-dimethylbutanoate]
pEC50 ([1]; read-out: PBMC EC50 IFN-α): 6.70 | pEC50 ([1]; read-out: PBMC EC50 IFN-γ): 6.70 | pEC50 ([1]; read-out: PBMC EC50 TNF-α): 6.70

pEC50 [2, 3]: 7.52
Compound: CC1(C(=O)OCOP2(=O)CO[C@H]3[C@@H](F)[C@H](n4cnc5c(N)ncnc54)O[C@@H]3COP(=O)(OCOC(=O)C3(C)CCCCC3)O[C@H]3[C@@H](F)[C@H](n4cnc5c(N)ncnc54)O[C@@H]3CO2)CCCCC1 (mixture of isomers) [Compound 45b]
pEC50 ([1]; read-out: PBMC EC50 IFN-α): 7.15 | pEC50 ([1]; read-out: PBMC EC50 IFN-γ): 7.70 | pEC50 ([1]; read-out: PBMC EC50 TNF-α): 7.70

pEC50 [2, 3]: 8.70
Compound: CCCCCCCC(=O)OCOP1(=O)CO[C@H]2[C@@H](F)[C@H](n3cnc4c(N)ncnc43)O[C@@H]2COP(=O)(OCOC(=O)CCCCCCC)O[C@H]2[C@@H](F)[C@H](n3cnc4c(N)ncnc43)O[C@@H]2CO1 (mixture of isomers) [Compound 46b, {[(1R,6R,8R,9R,10R,16R,18R,19R)-8,18-bis(6-amino-9H-purin-9-yl)-9,19-difluoro-13-[(octanoyloxy)methoxy]-3,13-dioxo-2,4,7,11,14,17-hexaoxa-3λ^5,13λ^5-diphosphatricyclo[14.3.0.0^6,^10]nonadecan-3-yl]oxy}methyl octanoate]
pEC50 ([1]; read-out: PBMC EC50 IFN-α): 8.40 | pEC50 ([1]; read-out: PBMC EC50 TNF-α): 9.00

Compound: CCCCCCCCCCCC(=O)OCSP1(=O)OC[C@H]2O[C@@H](n3cnc4c(N)ncnc43)[C@H](F)[C@@H]2OCP(=O)(O)OC[C@H]2O[C@@H](n3cnc4c(N)ncnc43)[C@H](F)[C@@H]2O1 (single isomer, unassigned) [Compound 31b]
pEC50 ([1]; read-out: PBMC EC50 IFN-α): 6.10 | pEC50 ([1]; read-out: PBMC EC50 IFN-γ): 6.52 | pEC50 ([1]; read-out: PBMC EC50 TNF-α): 6.30

Compound: CCCCCCCCCC(=O)OCSP1(=O)OC[C@H]2O[C@@H](n3cnc4c(N)ncnc43)[C@H](F)[C@@H]2OCP(=O)(O)OC[C@H]2O[C@@H](n3cnc4c(N)ncnc43)[C@H](F)[C@@H]2O1 (single isomer, unassigned) [Compound 36a]
pEC50 ([1]; read-out: PBMC EC50 IFN-α): 5.60 | pEC50 ([1]; read-out: PBMC EC50 IFN-γ): 5.80 | pEC50 ([1]; read-out: PBMC EC50 TNF-α): 5.92

Compound: CCCCCCCCCC(=O)OCSP1(=O)OC[C@H]2O[C@@H](n3cnc4c(N)ncnc43)[C@H](F)[C@@H]2OCP(=O)(O)OC[C@H]2O[C@@H](n3cnc4c(N)ncnc43)[C@H](F)[C@@H]2O1 (single isomer, unassigned) [Compound 36b]
pEC50 ([1]; read-out: PBMC EC50 IFN-α): 6.00 | pEC50 ([1]; read-out: PBMC EC50 IFN-γ): 6.30 | pEC50 ([1]; read-out: PBMC EC50 TNF-α): 6.10

Compound: CC(C)(C)C(=O)OCSP1(=O)CO[C@H]2[C@@H](F)[C@H](n3cnc4c(N)ncnc43)O[C@@H]2COP(=O)(SCOC(=O)C(C)(C)C)O[C@H]2[C@@H](F)[C@H](n3cnc4c(N)ncnc43)O[C@@H]2CO1 (single isomer, unassigned) [Compound 39a]
pEC50 [2, 4]: 5.96

Compound: CC(C)(C)C(=O)OCSP1(=O)CO[C@H]2[C@@H](F)[C@H](n3cnc4c(N)ncnc43)O[C@@H]2COP(=O)(SCOC(=O)C(C)(C)C)O[C@H]2[C@@H](F)[C@H](n3cnc4c(N)ncnc43)O[C@@H]2CO1 (single isomer, unassigned) [Compound 39b]
pEC50 [2, 4]: 7.70

Compound: CC(C)(C)C(=O)OCSP1(=O)CO[C@H]2[C@@H](F)[C@H](n3cnc4c(N)ncnc43)O[C@@H]2COP(=O)(SCOC(=O)C(C)(C)C)O[C@H]2[C@@H](F)[C@H](n3cnc4c(N)ncnc43)O[C@@H]2CO1 (single isomer, unassigned) [Compound 39c]
pEC50 [2, 4]: 7.52

Compound: CC(C)OC(=O)OCSP1(=O)CO[C@H]2[C@@H](F)[C@H](n3cnc4c(N)ncnc43)O[C@@H]2COP(=O)(SCOC(=O)OC(C)C)O[C@H]2[C@@H](F)[C@H](n3cnc4c(N)ncnc43)O[C@@H]2CO1 (single isomer, unassigned) [Compound 40b]
pEC50 [2, 4]: 5.92

Compound: CC(C)OC(=O)OCSP1(=O)CO[C@H]2[C@@H](F)[C@H](n3cnc4c(N)ncnc43)O[C@@H]2COP(=O)(SCOC(=O)OC(C)C)O[C@H]2[C@@H](F)[C@H](n3cnc4c(N)ncnc43)O[C@@H]2CO1 (single isomer, unassigned) [Compound 40c]
pEC50 [2, 4]: 5.41

pEC50 [2, 3]: 7.40
Compound: CC(C)(C)C(=O)OCOP1(=O)CO[C@H]2[C@@H](F)[C@H](n3cnc4c(N)ncnc43)O[C@@H]2COP(=O)(OCOC(=O)C(C)(C)C)O[C@H]2[C@@H](F)[C@H](n3cnc4c(N)ncnc43)O[C@@H]2CO1 (single isomer, unassigned) [Compound 41a]

pEC50 [2, 3]: 7.96
Compound: CC(C)(C)C(=O)OCOP1(=O)CO[C@H]2[C@@H](F)[C@H](n3cnc4c(N)ncnc43)O[C@@H]2COP(=O)(OCOC(=O)C(C)(C)C)O[C@H]2[C@@H](F)[C@H](n3cnc4c(N)ncnc43)O[C@@H]2CO1 (single isomer, unassigned) [Compound 41c]
pEC50 ([1]; read-out: PBMC EC50 IFN-α): 7.15 | pEC50 ([1]; read-out: PBMC EC50 IFN-γ): 7.22 | pEC50 ([1]; read-out: PBMC EC50 TNF-α): 7.22

pEC50 [2, 3]: 5.09
Compound: CC(C)OC(=O)OCOP1(=O)CO[C@H]2[C@@H](F)[C@H](n3cnc4c(N)ncnc43)O[C@@H]2COP(=O)(OCOC(=O)OC(C)C)O[C@H]2[C@@H](F)[C@H](n3cnc4c(N)ncnc43)O[C@@H]2CO1 (single isomer, unassigned) [Compound 42a]

Compound: Nc1nc2c(ncn2[C@@H]2O[C@@H]3COP(=O)(O)O[C@H]4[C@@H](O)[C@H](n5cnc6c(N)ncnc65)O[C@@H]4COP(=O)(O)O[C@@H]2[C@@H]3O)c(=O)[nH]1 [2′3′-cGAMP, reference compound]
pEC50 ([1]; read-out: PBMC EC50 IFN-α): 3.52 | pEC50 ([1]; read-out: PBMC EC50 IFN-γ): 3.79 | pEC50 ([1]; read-out: PBMC EC50 TNF-α): 3.68

Compound: CCCCCCCCCCCCOC(=O)OCSP1(=O)OC[C@H]2O[C@@H](n3cnc4c(N)ncnc43)[C@H](F)[C@@H]2OCP(=O)(O)OC[C@H]2O[C@@H](n3cnc4c(N)ncnc43)[C@H](F)[C@@H]2O1 (stereo partly drawn) [Compound 34b, (((2R,3R,3aR,7aR,9R,10R,10aR,15aR)-2,9-bis(6-amino-9H-purin-9-yl)-3,10-difluoro-13-hydroxy-5,13-dioxidodecahydro-2H-difuro[3,2-d:3′,2′-k][1,3,7,10]tetraoxa[2,8]diphosphacyclotridecin-5-yl)thio)methyl dodecyl carbonate]
pEC50 ([1]; read-out: PBMC EC50 IFN-α): 5.89 | pEC50 ([1]; read-out: PBMC EC50 IFN-γ): 6.30 | pEC50 ([1]; read-out: PBMC EC50 TNF-α): 6.15
